Experimental data from PubChem BioAssay (NCI).
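Step 1: Grow cells in 96-well plates. Step 2: Expose to compound for 48 hours at 5 concentrations. Step 3: Interpolate endpoints linearly; if unreached, use highest concentration. TGI denotes the concentration required for complete inhibition of growth.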

Assays:
Experiment in all cases: NCI anticancer screen, dose series, 48 h
BT-549 breast = system: BT-549 breast
TK-10 renal = system: TK-10 renal
ACHN renal = system: ACHN renal
SF-295 CNS = system: SF-295 CNS
RPMI-8226 leukemia = system: RPMI-8226 leukemia
HCC-2998 colon = system: HCC-2998 colon
SNB-19 CNS = system: SNB-19 CNS
SNB-75 CNS = system: SNB-75 CNS
RXF 393 renal = system: RXF 393 renal
SW-620 colon = system: SW-620 colon
A498 renal = system: A498 renal
LOX IMVI melanoma = system: LOX IMVI melanoma
HCT-15 colon = system: HCT-15 colon
NCI-H226 lung = system: NCI-H226 lung
DU-145 prostate = system: DU-145 prostate
SF-268 CNS = system: SF-268 CNS
HS 578T breast = system: HS 578T breast
IGROV1 ovarian = system: IGROV1 ovarian
NCI-H460 lung = system: NCI-H460 lung
MALME-3M melanoma = system: MALME-3M melanoma
UACC-62 melanoma = system: UACC-62 melanoma
EKVX NSCLC = system: EKVX NSCLC
MDA-MB-231 breast = system: MDA-MB-231 breast
SK-MEL-28 melanoma = system: SK-MEL-28 melanoma
M14 melanoma = system: M14 melanoma
786-0 renal = system: 786-0 renal
HOP-62 NSCLC = system: HOP-62 NSCLC
HCT-116 colon = system: HCT-116 colon
U251 CNS = system: U251 CNS
CAKI-1 renal = system: CAKI-1 renal
NCI/ADR-RES ovarian = system: NCI/ADR-RES ovarian
OVCAR-8 ovarian = system: OVCAR-8 ovarian
SK-MEL-5 melanoma = system: SK-MEL-5 melanoma
PC-3 prostate = system: PC-3 prostate
KM12 colon = system: KM12 colon
MOLT-4 leukemia = system: MOLT-4 leukemia
K-562 leukemia = system: K-562 leukemia
MDA-MB-435 = system: MDA-MB-435
HT29 colon = system: HT29 colon
MDA-N = system: MDA-N
HOP-92 NSCLC = system: HOP-92 NSCLC
NCI-H23 lung = system: NCI-H23 lung
SN12C renal = system: SN12C renal
OVCAR-4 ovarian = system: OVCAR-4 ovarian
OVCAR-3 ovarian = system: OVCAR-3 ovarian
A549 NSCLC = system: A549 NSCLC
UACC-257 melanoma = system: UACC-257 melanoma
OVCAR-5 ovarian = system: OVCAR-5 ovarian
SF-539 CNS = system: SF-539 CNS
SK-OV-3 ovarian = system: SK-OV-3 ovarian
UO-31 renal = system: UO-31 renal
NCI-H522 lung = system: NCI-H522 lung
COLO 205 colon = system: COLO 205 colon
MCF7 breast = system: MCF7 breast
T-47D breast = system: T-47D breast
SK-MEL-2 melanoma = system: SK-MEL-2 melanoma
HL-60(TB) leukemia = system: HL-60(TB) leukemia
SR leukemia = system: SR leukemia
CCRF-CEM leukemia = system: CCRF-CEM leukemia

Measured: TGI

O=C(c1cccc(C(=O)c2ccc3c4c(cccc24)C(=O)N(c2ccccc2)C3=O)c1)c1ccc2c3c(cccc13)C(=O)N(c1ccccc1)C2=O
69.5 µM: A498 renal
> 100 µM: BT-549 breast | TK-10 renal | ACHN renal | SF-295 CNS | RPMI-8226 leukemia | HCC-2998 colon | SNB-19 CNS | SNB-75 CNS | RXF 393 renal | SW-620 colon | LOX IMVI melanoma | HCT-15 colon | NCI-H226 lung | DU-145 prostate | SF-268 CNS | HS 578T breast | IGROV1 ovarian | NCI-H460 lung | MALME-3M melanoma | UACC-62 melanoma | EKVX NSCLC | MDA-MB-231 breast | SK-MEL-28 melanoma | M14 melanoma | 786-0 renal | HOP-62 NSCLC | HCT-116 colon | U251 CNS | CAKI-1 renal | NCI/ADR-RES ovarian | OVCAR-8 ovarian | SK-MEL-5 melanoma | PC-3 prostate | KM12 colon | MOLT-4 leukemia | K-562 leukemia | MDA-MB-435 | HT29 colon | MDA-N | HOP-92 NSCLC | NCI-H23 lung | SN12C renal | OVCAR-4 ovarian | OVCAR-3 ovarian | A549 NSCLC | UACC-257 melanoma | OVCAR-5 ovarian | SF-539 CNS | SK-OV-3 ovarian | UO-31 renal | NCI-H522 lung | COLO 205 colon | MCF7 breast

O=C(O)c1oc(C(=O)O)c(C(=O)O)c1C(=O)O
> 100 µM: BT-549 breast | TK-10 renal | ACHN renal | SF-295 CNS | RPMI-8226 leukemia | SNB-19 CNS | RXF 393 renal | T-47D breast | SW-620 colon | A498 renal | LOX IMVI melanoma | SK-MEL-2 melanoma | HCT-15 colon | HL-60(TB) leukemia | NCI-H226 lung | DU-145 prostate | SF-268 CNS | HS 578T breast | IGROV1 ovarian | NCI-H460 lung | MALME-3M melanoma | UACC-62 melanoma | EKVX NSCLC | MDA-MB-231 breast | SK-MEL-28 melanoma | M14 melanoma | 786-0 renal | HOP-62 NSCLC | HCT-116 colon | SR leukemia | U251 CNS | CAKI-1 renal | NCI/ADR-RES ovarian | OVCAR-8 ovarian | SK-MEL-5 melanoma | PC-3 prostate | KM12 colon | MOLT-4 leukemia | K-562 leukemia | CCRF-CEM leukemia | HT29 colon | MDA-N | HOP-92 NSCLC | NCI-H23 lung | SN12C renal | OVCAR-4 ovarian | OVCAR-3 ovarian | A549 NSCLC | UACC-257 melanoma | OVCAR-5 ovarian | UO-31 renal | NCI-H522 lung

COc1ccc2c(c1)CCC1=CC3(CCC12C)SCCS3 (stereo not drawn)
> 10 µM: BT-549 breast | TK-10 renal | ACHN renal | SF-295 CNS | RPMI-8226 leukemia | HCC-2998 colon | SNB-19 CNS | SNB-75 CNS | T-47D breast | SW-620 colon | LOX IMVI melanoma | HCT-15 colon | DU-145 prostate | SF-268 CNS | IGROV1 ovarian | MALME-3M melanoma | UACC-62 melanoma | MDA-MB-231 breast | SK-MEL-28 melanoma | M14 melanoma | 786-0 renal | HOP-62 NSCLC | SR leukemia | U251 CNS | CAKI-1 renal | NCI/ADR-RES ovarian | OVCAR-8 ovarian | SK-MEL-5 melanoma | PC-3 prostate | KM12 colon | MOLT-4 leukemia | K-562 leukemia | MDA-MB-435 | CCRF-CEM leukemia | HT29 colon | HOP-92 NSCLC | NCI-H23 lung | SN12C renal | OVCAR-4 ovarian | A549 NSCLC | UACC-257 melanoma | SK-OV-3 ovarian | NCI-H522 lung | COLO 205 colon | MCF7 breast
7.71 µM: OVCAR-3 ovarian
6.36 µM: MDA-N
8.36 µM: HL-60(TB) leukemia

O=C=NCCCCCCN1C(=O)N2C(c3ccccc3)N(CCCCCCN=C=O)C(=O)N2C1c1ccccc1 (stereo not drawn)
> 100 µM: BT-549 breast | TK-10 renal | ACHN renal | SF-295 CNS | RPMI-8226 leukemia | HCC-2998 colon | SNB-19 CNS | SNB-75 CNS | RXF 393 renal | SW-620 colon | A498 renal | LOX IMVI melanoma | SK-MEL-2 melanoma | HCT-15 colon | HL-60(TB) leukemia | NCI-H226 lung | DU-145 prostate | SF-268 CNS | IGROV1 ovarian | NCI-H460 lung | MALME-3M melanoma | EKVX NSCLC | MDA-MB-231 breast | SK-MEL-28 melanoma | M14 melanoma | 786-0 renal | HOP-62 NSCLC | HCT-116 colon | SR leukemia | U251 CNS | CAKI-1 renal | NCI/ADR-RES ovarian | OVCAR-8 ovarian | SK-MEL-5 melanoma | PC-3 prostate | KM12 colon | MOLT-4 leukemia | K-562 leukemia | MDA-MB-435 | CCRF-CEM leukemia | HT29 colon | MDA-N | HOP-92 NSCLC | NCI-H23 lung | SN12C renal | OVCAR-4 ovarian | OVCAR-3 ovarian | A549 NSCLC | UACC-257 melanoma | OVCAR-5 ovarian | SF-539 CNS | UO-31 renal | COLO 205 colon | MCF7 breast
